Source: ChEMBL document CHEMBL3046137, “Benzo[d][1,3] oxathiols: synthesis and biological evaluation as potential atypical antipsychotic agents” (Med Chem Res, 2011)

What was measured:
Mus musculus [1] = experiment: Atypical antipsychotic activity in Mus musculus albino (mouse) assessed as inhibition of 5HTP-induced head twitching at 25 mg/kg, ip administered 30 min prior to 5-HTP-challenge measured after 20 min for 5 min
Mus musculus [2] = experiment: Induction of catalepsy in ip dosed Mus musculus albino (mouse) measured after 20 min for 5 min; format: organism-based; details: in vivo
Mus musculus [3] = experiment: Atypical antipsychotic activity in Mus musculus albino (mouse) assessed as inhibition of apomorphine-induced climbing behaviour at 60 mg/kg, ip administered 30 min prior to apomorphine-challenge measured after 5 min for 30 min relative to control; format: functional; details: route intraperitoneal
Mus musculus [4] = experiment: Induction of catalepsy in Mus musculus albino (mouse) at 25 mg/kg, ip measured after 20 min for 5 min; format: organism-based; set-up: dose 25 mg/kg, route intraperitoneal; details: in vivo
Mus musculus [5] = species: Mus musculus; experiment: animal or person; details: albino, ip, read-out: INH
Description: Atypical antipsychotic activity in Mus musculus albino (mouse) assessed as inhibition of apomorphine-induced climbing behaviour at 25 mg/kg, ip administered 30 min prior to apomorphine-challenge measured after 5 min for 30 min relative to control

SMILES | inhibition in vivo at 25 mg/kg (Mus musculus [1]) | Activity (Mus musculus [2]) | inhibition in vivo at 60 mg/kg (Mus musculus [3]) | Activity (Mus musculus [4]) | inhibition in vivo at 25 mg/kg (Mus musculus [5])
O=c1oc2cc(OCCCN3CCCCC3)ccc2s1 | 67.3% | Dose-dependent effect | 51.2% | 41% | 
O=c1oc2cc(OCCCN3CCOCC3)ccc2s1 | 71.5% | Dose-dependent effect | 69.6% | 39.27% | 
CCN(CC)CCCOc1ccc2sc(=O)oc2c1 | 63.4% | Dose-dependent effect | 53.3% | 37.11% | 
O=c1oc2cc(OCCCN3CCNCC3)ccc2s1 | 68.2% | Dose-dependent effect | 62.3% | 42.39% | 
O=c1oc2cc(OCCCn3cnnc3)ccc2s1 | 79.3% | Dose-dependent effect | 70% | 36.98% | 
O=c1oc2cc(OCCCOc3ccc4ccccc4c3)ccc2s1 | 61.1% | Dose-dependent effect | 47% | 41.22% | 
O=c1oc2cc(OCCCOc3cccc4ccccc34)ccc2s1 | 58.3% | Dose-dependent effect | 39% | 49.21% | 
O=c1oc2cc(OCCCOc3ccc(Cl)cc3)ccc2s1 | 77.9% | Dose-dependent effect | 49.3% | 33.71% | 
Cc1ccc(OCCCOc2ccc3sc(=O)oc3c2)cc1 | 77.3% | Dose-dependent effect | 52.4% | 39.48% | 
O=c1oc2cc(OCCCOc3ccc([N+](=O)[O-])cc3)ccc2s1 | 80% | Dose-dependent effect | 67.3% | 43.92% | 
O=C1CCc2ccc(OCCCCN3CCN(c4cccc(Cl)c4Cl)CC3)cc2N1 [ARIPIPRAZOLE] | 80.2% |  |  | 29.34% | 62.4%
